Reference: patent US20090124634A1, “Novel dipodazine compounds and applications” (Viogard AB, priority 2005, published 2009)
Marks after values point to notes of the source that are not given here.

How the values were obtained:
[1] = system: cyprids larvae of B. improvisus; conditions: B. improvisus cypris larvae, from ref [27], cited from earlier work; for EC50: read-out: EC50, inhibition of settlement of cypris larvae
B. improvisus = experiment: Field experiment, paint-coated panels in sea water: recruitment/settlement of B. improvisus; format: in vivo, Balanus improvisus; conditions: for Reduction of recruitment (%): B. improvisus; for reduction of settlement of B. Improvisus: panels eight weeks in sea water, 0.2-1.5 m depth (FIG. 1)
From the text: (§1) The effects of barettin and 8,9-Dihydrobarettin on B. improvisus recruitment was studied, by formulating different paints with different concentrations of the active substances.
(§2) The paints were commercially available paints and the four different paints are listed below:
One compound according to the present invention, benzo[g]dipodazine, which is the at present preferred compound, was formulated in a commercially available paint (SPF, from Lotréc, Lidingö, Sweden). The concentration of benzo[g]dipodazine in the paint was 0.1% and 0.01% based on the weight of the paint.
The paint was coated on panels in the same way as described above in Example 1 (comparative example). A control panel was coated with the same paint without benzo[g]dipodazine. All panels were immersed in sea water at a depth of 0.2-1.5 m, and maintained in the water for eight weeks.

M. edulis = experiment: Field experiment, paint-coated panels in sea water: recruitment of M. edulis; format: in vivo, Mytilus edulis
From the text: as §1, §2
Also, the effects of barettin and 8,9-dihydrobarettin on M. edulis recruitment were studied. When analyzing the data on the recruitment of M. edulis in the present field experiment, in a 3-factor analysis of variance with substance, paint and concentration as fixed factors, there was a significant interaction between the factors substance and paint. The main contribution to the significant interaction between the factors substance and paint is the result of barettin in combination with the SPF paint. […] However, the SNK-test could not reveal any significant differences between data.

[2] = system: cyprids larvae of B. improvisus; experiment: Larval settlement assay (barnacle cyprids in dishes), incl. reversibility test; format: in vivo, Balanus improvisus
Procedure: Barnacle cyprids larvae of B. improvisus was reared in the laboratory as described in [2]. The settlement propensity and mortality of barnacle cyprids were used to evaluate the bioactive effect of barettin and analogues. Stock solutions of all compounds shown in FIG. 4 were prepared by dissolving the compounds in dimethylsulfoxide (DMSO). The stock solutions were further diluted in filtered seawater (FSW, Millipore 0.2 μm) to yield the desired concentrations of 1×10^−4, 1×10^−3 and 1×10^−2 mg ml^−1. The settlement assays were performed using Petri dishes of untreated polystyrene (Nunc no 240045, Ø 48 mm) containing 10 ml of FSW to which 20±5 cyprids were added. Cyprids were used on their first or second day after moulting. Each treatment with a specific analogue was replicated 4 times and dishes with FSW only or FSW containing DMSO (0.1%) served as controls. Dishes were maintained for 3-4 days at room temperature (21±2° C.) in the prevailing light:dark cycle of 9:15 h. The effects of the different analogues, classified as either neutral, stimulatory or inhibitory, on the cyprids, were determined by examining the dishes under a stereo microscope and checking for 1) attached and metamorphosed individuals, 2) non-metamorphosed, alive, non-attached cyprids and 3) dead cyprids. Each substance was tested at least in two independent experimental series. […]

[3] = FabiEco paint, 0.01% in paint, listed as 8,9-dihydro-barettin
[4] = FabiEco paint, 0.1% in paint, listed as 8,9-dihydro-barettin
[5] = SPF paint, 0.01% in paint, vs control panels
[6] = SPF paint, 0.1% in paint, vs control panels
[7] = SPF paint, 0.01% in paint, 8-week period
[8] = SPF paint, 0.1% in paint, 8-week period

SMILES	effect on larval mortality [1]	EC50 [1] [µM]	Reduction of recruitment (%) (B. improvisus; FabiEco paint, 0.01% in paint)	Reduction of recruitment (%) (B. improvisus; FabiEco paint, 0.1% in paint)	Reduction of recruitment (%) (B. improvisus; H2000 paint, 0.01% in paint)	Reduction of recruitment (%) (B. improvisus; H2000 paint, 0.1% in paint)	Reduction of recruitment (%) (B. improvisus; [5])	Reduction of recruitment (%) (B. improvisus; [6])	Reduction of recruitment (%) (B. improvisus; TF paint, 0.01% in paint)	Reduction of recruitment (%) (B. improvisus; TF paint, 0.1% in paint)	Reduction of recruitment (%) (M. edulis; FabiEco paint, 0.01% in paint)	Reduction of recruitment (%) (M. edulis; FabiEco paint, 0.1% in paint)	Reduction of recruitment (%) (M. edulis; H2000 paint, 0.01% in paint)	Reduction of recruitment (%) (M. edulis; H2000 paint, 0.1% in paint)	Reduction of recruitment (%) (M. edulis; [7])	Reduction of recruitment (%) (M. edulis; [8])	Reduction of recruitment (%) (M. edulis; TF paint, 0.01% in paint)	Reduction of recruitment (%) (M. edulis; TF paint, 0.1% in paint)	other results
N=C(N)NCCC[C@@H]1NC(=O)[C@H](Cc2c[nH]c3cc(Br)ccc23)NC1=O [8,9-dihydrobarettin]	none of the compounds displayed any significant effect on larval mortality	7.9	59	69	46	20	43	61	−10	−1	50	67	53	39	52	72	−28%	3.8	Reduction of recruitment (%) (B. improvisus; [3]): 59* %; Reduction of recruitment (%) (B. improvisus; [4]): 69*** %; Reduction of recruitment (%) (B. improvisus; SPF paint, 0.1% in paint, vs control panels, listed as 8,9-dihydro-barettin): 61** %; Reduction of recruitment (%) (M. edulis; [3]): 50* %; Reduction of recruitment (%) (M. edulis; [4]): 67** %; Reduction of recruitment (%) (M. edulis; H2000 paint, 0.01% in paint, listed as 8,9-dihydro-barettin): 53* %; Reduction of recruitment (%) (M. edulis; SPF paint, 0.1% in paint, 8-week period, listed as 8,9-dihydro-barettin): 72** %
O=C1CNC(=O)C(=Cc2cc3ccccc3s2)N1 [compound 12, 3-[1-benzothiophen-2-yl-methylidene]-piperazine-2,5-dione]	–	–	–	–	–	–	–	–	–	–	–	–	–	–	–	–	–	–	melting point: 258 °C
N=C(N)NCCC[C@@H]1NC(=O)/C(=C/c2c[nH]c3cc(Br)ccc23)NC1=O [barettin]	none of the compounds displayed any significant effect on larval mortality	0.9	45	49	28	23	67	89	25	17	51	47	26	12	83	81	51* %	6	Reduction of recruitment (%) (M. edulis; TF paint, 0.01% in paint, listed as Barettin): 51%
O=C1CNC(=O)/C(=C/c2c[nH]c3c2ccc2ccccc23)N1 [benzo[g]dipodazine]	–	–	–	–	–	–	–	–	–	–	–	–	–	–	–	–	–	–	reduction of settlement of B. Improvisus (B. improvisus; SPF paint, 0.01% by weight of paint): about 73%; reduction of settlement of B. Improvisus (B. improvisus; SPF paint, 0.1% by weight of paint): about 85%; inhibition of settlement of cyprids ([2]; 34 μM in dishes (FIG. 2A)): complete inhibition; reversibility: ability of cyprids to settle again in fresh seawater after exposure ([2]; totally inhibited cyprids transferred to fresh sea water (FSW) (FIG. 2B)): regained this capability when transferred to fresh sea water
